Assay [1] addresses T1, rat PrRP receptor (Rattus norvegicus, UniProt Q64121).
T1 construct: host or cells: RC-4B/C rat pituitary cell line
T1 sequence (Q64121 1-370): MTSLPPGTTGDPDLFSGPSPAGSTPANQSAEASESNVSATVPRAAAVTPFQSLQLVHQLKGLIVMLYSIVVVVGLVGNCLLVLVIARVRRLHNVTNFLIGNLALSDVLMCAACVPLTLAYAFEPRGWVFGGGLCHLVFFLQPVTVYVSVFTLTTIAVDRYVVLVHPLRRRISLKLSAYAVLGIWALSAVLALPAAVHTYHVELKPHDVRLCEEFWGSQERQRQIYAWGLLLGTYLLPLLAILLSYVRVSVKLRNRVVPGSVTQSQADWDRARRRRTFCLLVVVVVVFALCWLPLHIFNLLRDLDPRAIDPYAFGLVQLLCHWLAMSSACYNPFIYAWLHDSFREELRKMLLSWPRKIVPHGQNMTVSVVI
As to the kind of experiment: Competitive binding in RC-4B/C rat pituitary cells (125I-rat PrRP31). The essentials:
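Intact rat pituitary RC-4B/C cells incubated 60 min at room temperature with […] rat 125I-PrRP31 and unlabeled analog (10^−11 to 10^−4 mol·l^−1) in HEPES pH 7.4 buffer. Cell-bound radioactivity γ-counted after NaOH lysis; one-site competition fit.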

Assay [2] deals with T2, human PrRP receptor GPR10 (Homo sapiens, UniProt P49683).
T2 construct: host or cells: CHO cells
T2 sequence (P49683 1-370): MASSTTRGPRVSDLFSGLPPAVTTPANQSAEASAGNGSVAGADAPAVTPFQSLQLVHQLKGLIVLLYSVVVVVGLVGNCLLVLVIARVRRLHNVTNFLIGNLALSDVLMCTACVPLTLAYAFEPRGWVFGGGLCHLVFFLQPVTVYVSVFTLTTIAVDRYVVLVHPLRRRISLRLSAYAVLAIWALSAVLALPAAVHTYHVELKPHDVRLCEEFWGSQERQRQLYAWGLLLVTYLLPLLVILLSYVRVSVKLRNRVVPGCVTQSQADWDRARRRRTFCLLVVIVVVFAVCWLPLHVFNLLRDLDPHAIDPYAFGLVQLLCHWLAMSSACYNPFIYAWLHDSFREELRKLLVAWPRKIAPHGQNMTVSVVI
As to the kind of experiment: Competitive binding in CHO cells transfected with human GPR10 (human 125I-PrRP31). The procedure, abridged:
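GPR10-transfected CHO cells (40-80 thousand/well) incubated 60 min at room temperature with 5×10^-11 mol·l^-1 human 125I-PrRP31 and unlabeled analog at 10^-11 to 10^-4 mol·l^-1 in Tris binding buffer pH 7.4. Cells solubilized in 0.1 mol/l NaOH, γ-counted; one-site nonlinear regression fit.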

In assay [3] the test system is C57BL/6 mice. As to the kind of experiment: Food intake in fasted mice after SC injection. The class given is in vivo. The conditions noted are these: 5 mg/kg SC, 45 min after injection. The procedure, abridged: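 Overnight-fasted animals (food removed 17 h before dosing, water available) in individual cages got saline, PrRP or lipidated PrRP analogs SC at 1-10 mg/kg.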

Assay [4] has as its system diabetic db/db mice. As to the kind of experiment: IPGTT after 14 days administration to diabetic db/db mice. The conditions noted are these: 5 mg/kg SC twice a day for 14 days, vs saline. The class given is in vivo. Here is the method: Then, mice were fasted overnight and IPGTT was performed. After initial blood glucose measurement, 2 g/kg glucose solution was administered IP and glucose followed every hour for 7 hours. Glucose level is shown at the end of the experiment (420 min).
Db/db male mice and their respective controls were acclimatized after arrival, housed 2-3 mice per cage, and used in the experiment at age 11-12 weeks. Mice had free access to food and water, and were subjected to a 14-day experiment. […] The body weight of the mice was followed simultaneously. Following 14 days of treatment, mice were fasted overnight and IPGTT was performed. After initial blood glucose measurement, 2 g/kg glucose solution was administered IP, and glucose levels were measured every hour for 7 hours.

Molecules are shown by their SMILES.

With `CCCCCCCCCCCCCCCC(=O)N[C@@H](CO)C(=O)N[C@@H](CCCNC(=N)N)C(=O)N[C@H](C(=O)N[C@@H](Cc1c[nH]cn1)C(=O)N[C@@H](CCCNC(=N)N)C(=O)N[C@@H](Cc1c[nH]cn1)C(=O)N[C@@H](CO)C(=O)N[C@@H](CCSC)C(=O)N[C@@H](CCC(=O)O)C(=O)N[C@H](C(=O)N[C@@H](CCCNC(=N)N)C(=O)N[C@H](C(=O)N1CCC[C@H]1C(=O)N[C@@H](CC(=O)O)C(=O)N[C@H](C(=O)N[C@@H](CC(N)=O)C(=O)N1CCC[C@H]1C(=O)N[C@@H](C)C(=O)N[C@@H](Cc1c[nH]c2ccccc12)C(=O)N[C@@H](Cc1ccc(O)cc1)C(=O)N[C@@H](C)C(=O)N[C@@H](CO)C(=O)N[C@@H](CCCNC(=N)N)C(=O)NCC(=O)N[C@H](C(=O)N[C@@H](CCCNC(=N)N)C(=O)N1CCC[C@H]1C(=O)N[C@H](C(=O)NCC(=O)N[C@@H](CCCNC(=N)N)C(=O)N[C@@H](Cc1ccccc1)C(N)=O)C(C)C)[C@@H](C)CC)[C@@H](C)CC)[C@@H](C)O)[C@@H](C)CC)[C@@H](C)O` [Analog 43], the Ki (as a rule, a dissociation constant, usually derived from enzyme kinetics or from competition with a known ligand) in assay [1] turned out to be 950 ± 350 pM. Moreover, the “Displacement of rat 125I-PrRP binding” value in assay [1] (RC-4B/C cells, rat PrRP receptor) was “nmol·l^−1 range”. The “% of PrRP31, RC-4B/C rat pituitary cells” value in assay [1] (affinity relative to PrRP31) came out at 519%. The “% of PrRP31, GPR10 human receptor transfected in CHO cells” value in assay [2] (affinity relative to PrRP31) turned out to be 90%. Besides, the “Displacement of human 125I-PrRP binding” value in assay [2] (human GPR10 receptor) was “nmol·l^−1 range”. Moreover, the “Food intake in mice % of saline-treated group” value in assay [3] stood at 30%. In assay [4], the “IPGTT glucose level at end of experiment (420 min)” value was “significantly lower”.

The record behind these values is patent US10350271B2, “Lipidated peptides for lowering blood glucose” (USTAV ORGANICKE CHEMIE A BIOCHEMIE AKADEMIE VED CR, V.V.I., priority 2014, dated 2019).
